The target of data set [1] is T1, human mGluR5a receptor (Homo sapiens, UniProt P41594).
T1 construct: host or cells: HEK293A (monoclones H10H and H12H)
The experiment in a line: Functional Assay 3: as Functional Assay 2 but clone H12H. The following applies: for EC50: glutamate EC20; for Emax: maximum average response at a single concentration. The data set is classed as cell-based. The method, then:
HEK cells transfected with the human mGluR5a receptor (H10H cell line) were plated at 15.000 cells/well in clear-bottomed poly-D-lysine-coated assay plates (BD Falcon) in glutamate-glutamine-free growth medium and incubated overnight at 37° C. and 5% CO2. The following day, the growth medium was removed and the cells were washed with assay buffer containing 1× Hank's balanced salt solution (Invitrogen, Carlsbad, Calif.), 20 mM HEPES, 2.5 mM probenecid, pH 7.4 and left with 20 μL of this reagent. Following this step, the cells were loaded with calcium indicator dye, fluo-4 AM, to a final concentration of 2 μM and incubated for 40-45 min at 37° C. The dye solution was removed and replaced with assay buffer. Cell plates were held for 10-15 min at room temperature and were then loaded into the Functional Drug Screening System 6000 (FDSS 6000, Hamamatsu, Japan).
After establishment of a fluorescence baseline for about 3 seconds, the compounds of the present invention were added to the cells, and the response in cells was measured. 2.3 minutes later an EC20 concentration of the mGluR5 receptor agonist glutamate was added to the cells, and the response of the cells was measured for about 1.7 minutes. All test compounds were dissolved and diluted to a concentration of 10 mM in 100% DMSO and then serially diluted into assay buffer for a 2× stock solution in 0.6% DMSO; stock compounds were then added to the assay for a final DMSO concentration of 0.3% after the first addition to the assay well. Calcium fluorescence measures were recorded as fold over basal fluorescence; raw data was then normalized to the maximal response to glutamate. Potentiation of the agonist response of the mGluR5 receptor in the present invention was observed as an increase in response to submaximal concentrations of glutamate in the presence of compound compared to the response to glutamate in the absence of compound.
The concentration-response curves of compounds of the present invention, obtained in the presence of EC20 of mGluR5 receptor agonist glutamate to determine positive allosteric modulation, were generated using Microsoft Excel with IDBS XLfit add-ins. The raw data file containing all time points was used as the data source in the analysis template. This was saved by the FDSS as a tab-delimitted text file. Data were normalized using a static ratio function (F/F0) for each measurement of the total 350 values per well divided by each well's initial value. Data was then reduced as to peak amplitudes (Max−Initial Min) using a time range that starts approximately 1 second after the glutamate EC20 addition and continues for approximately 40 seconds. This is sufficient time to capture the peak amplitude of the cellular calcium response. Individual amplitudes were expressed as % effect by multiplying each amplitude by 100 and then dividing the product by the mean of the amplitudes derived from the glutamate ECMax-treated wells. pEC50 values for test compounds were generated by fitting the normalized values versus the log of the test compound concentration (in mol/L) using a 4 parameter logistic equation where none of the parameters were fixed. Each of the three values collected at each concentration of test compound were weighted evenly. Individual values falling outside the 95% prediction limits of the curve fit were automatically excluded from the fit. […] These two methods are in good agreement for curves with a clear plateau at the high concentration range. […] For consistency purposes across the range of potencies observed, all Emax values reported in this application are calculated using the maximum average response at a single concentration.
Functional Assay 3 was performed under the same conditions as Functional Assay 2, except that clone H12H was used instead of clone H10H.
The clones that were used in the primary functional assay gave undiscernable differences in this assay.

In the next data set the target is T2, human mGluR5 receptor (Homo sapiens, UniProt P41594).
T2 construct: expressed in transfected cells; host or cells: HEK-293
T2 sequence (P41594 21-1180 isoform P41594-2 limits assumed): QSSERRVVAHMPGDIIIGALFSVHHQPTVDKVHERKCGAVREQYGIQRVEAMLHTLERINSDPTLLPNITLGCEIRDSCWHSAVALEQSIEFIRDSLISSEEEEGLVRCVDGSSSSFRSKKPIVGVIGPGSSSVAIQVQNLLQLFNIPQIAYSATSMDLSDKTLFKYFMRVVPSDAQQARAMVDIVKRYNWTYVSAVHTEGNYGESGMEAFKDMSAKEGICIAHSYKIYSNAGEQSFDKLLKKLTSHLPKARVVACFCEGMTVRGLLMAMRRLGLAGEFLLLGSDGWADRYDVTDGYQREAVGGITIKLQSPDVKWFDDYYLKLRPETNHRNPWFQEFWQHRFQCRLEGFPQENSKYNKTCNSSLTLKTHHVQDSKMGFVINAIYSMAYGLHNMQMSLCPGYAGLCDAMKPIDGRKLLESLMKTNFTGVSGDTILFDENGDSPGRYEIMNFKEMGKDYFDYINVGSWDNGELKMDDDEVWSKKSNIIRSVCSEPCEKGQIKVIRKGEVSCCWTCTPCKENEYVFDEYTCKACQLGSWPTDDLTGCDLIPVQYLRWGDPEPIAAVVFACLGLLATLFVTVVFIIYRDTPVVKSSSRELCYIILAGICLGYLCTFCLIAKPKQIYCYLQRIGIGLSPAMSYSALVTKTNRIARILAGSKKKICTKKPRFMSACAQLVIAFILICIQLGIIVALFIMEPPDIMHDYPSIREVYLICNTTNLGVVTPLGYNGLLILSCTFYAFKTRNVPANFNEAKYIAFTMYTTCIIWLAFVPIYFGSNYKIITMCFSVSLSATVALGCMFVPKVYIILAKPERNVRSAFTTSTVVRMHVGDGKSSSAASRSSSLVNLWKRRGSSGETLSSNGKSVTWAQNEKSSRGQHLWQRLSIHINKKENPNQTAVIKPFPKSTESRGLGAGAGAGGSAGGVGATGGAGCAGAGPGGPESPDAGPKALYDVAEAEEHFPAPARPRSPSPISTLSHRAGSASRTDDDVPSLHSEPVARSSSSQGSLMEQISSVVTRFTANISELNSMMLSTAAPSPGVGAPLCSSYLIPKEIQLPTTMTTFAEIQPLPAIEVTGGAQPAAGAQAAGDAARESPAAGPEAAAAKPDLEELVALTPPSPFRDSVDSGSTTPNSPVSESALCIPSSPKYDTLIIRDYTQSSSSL
The experiment in a line: Functional Assay 1: intracellular Ca2+ mobilization, positive allosteric modulation of glutamate EC20 response. The format is cell-based. The following applies: for Emax: maximum % effect relative to glutamate ECMax. (In general: Calcium assays in cells follow changes in intracellular calcium, usually with a dye or a luminescent sensor.)

The test system of data set [2] is amphetamine-induced hyperlocomotion. Description: Rat hyperlocomotion assay (reversal of amphetamine-induced hyperlocomotion). The format is in vivo. The following applies: male Sprague-Dawley rats; 3.0, 10.0, 30.0, 56.6 mg/kg p.o.; amphetamine sulphate 1.0 mg/kg s.c.; FIG. 1. The method, then:
Locomotor activity was assessed as mean distance traveled (cm) in standard 16×16 photocell testing chambers measuring 43.2 cm (Length)×43.2 cm (Width)×30.5 cm (Height) (Med Associates, St. Albans, Vt.). Animals were habituated to individual activity chambers for at least 30 min prior to drug administration. Following administration of drug or vehicle, activity was recorded for a 90 minute time period. Data was expressed as the mean (±SEM) distance traveled recorded in 5 min intervals over the test period. The data was analyzed using repeated measures analysis of variance (ANOVA) followed by post-hoc testing using Dunnett's test, when appropriate. A difference was considered significant when p≦05. […]
The animals were habituated in Smart Open Field locomotor activity test chambers (Hamilton-Kinder, San Diego, Calif.) with 16×16 photobeams to automatically record locomotor activity for 30 min and then dosed with vehicle or test compound. […] At 60 min, all rats were injected subcutaneously with 1 mg/kg amphetamine or vehicle and then monitored for an additional 60 min. Animals are monitored for a total of 120 minutes. Data are expressed as changes in ambulation defined as total number of beam breaks per 5 min periods.
The data for the dose-response studies were analyzed by a between-group analysis of variance. […]

For data set [3], the target named is T1, human mGluR5a receptor. Description: Functional Assay 2: Ca2+ mobilization, HEK cells with human mGluR5a receptor (H10H cell line). The data set is classed as cell-based. The conditions noted are these: H10H cell line; for Emax: HEK293, maximum average response at a single concentration, relative to glutamate ECMax.

Molecules are shown by their SMILES.

The term melting point denotes the temperature of the solid-liquid transition. As usually defined, the EC50 is the concentration that produces a half-maximal response. The term Emax denotes the size of the effect at its maximum, as opposed to the concentration needed.

T1 sequence (P41594 21-1180 isoform P41594-2 limits assumed): as above
Method for human mGluR5 receptor: HEK-293 cells were stable transfected with human mGluR5a cDNA in expression vector pcDNA4/TO. For Assay 1, these human mGluR5 receptor over-expressing HEK-293 cells were grown at a density of 40,000 cells/well in PDL-coated 384-well plates. The following day, cells were preloaded with the calcium-sensing dye Fluo-4 AM and various concentrations of test compound were added in the absence of exogenous glutamate to test for direct agonist activity. Shortly (2.5 min) thereafter, an EC20 equivalent of glutamate (˜0.2 μM) was added. The fluorescence signal was monitored using a Hamamatsu Functional Drug Screening System (FDSS) fluorescence plate reader following the addition of compound alone (direct agonist response) and then the further addition of an EC20 of glutamate (positive allosteric modulation response). The pEC50 was defined as the negative log of the test compound concentration which produced an increase in the glutamate EC20-mediated response that was 50% of maximum. Individual amplitudes were expressed as % effect by multiplying each amplitude by 100 and then dividing the product by the mean of the amplitudes derived from the glutamate ECMax-treated wells. Emax values reported in this application are defined as the maximum % effect obtained in a concentration-response curve.

In the case of `C[C@@H](N1CCc2nc(COc3cccc(F)c3)sc2C1=O)C(C)(C)C` [Compound 7, 2-[(3-fluorophenoxy)methyl]-6,7-dihydro-5-[(1R)-1,2,2-trimethylpropyl]-thiazolo[5,4-c]pyridin-4(5H)-one], the melting point lay within 87.2 to 87.8 °C. For the same compound, at human mGluR5a receptor [1], the EC50 is 1410 nM and the Emax amounted to 57%.
Regarding `CN1CCc2nc(COc3ccccc3)sc2C1=O` [Compound 8, 6,7-dihydro-5-methyl-2-(phenoxymethyl)-thiazolo[5,4-c]pyridin-4(5H)-one], the Emax on human mGluR5 receptor was 88%; on human mGluR5a receptor [3], 77%. In addition, in data set [2], the “reversal of amphetamine-induced hyperlocomotion” value was “dose-dependent reversal effects”.
For `O=C1c2sc(COc3ccccc3)nc2CCN1c1ccc(F)cc1` [Compound 9, 5-(4-fluorophenyl)-6,7-dihydro-2-(phenoxymethyl)-thiazolo[5,4-c]pyridin-4(5H)-one], on human mGluR5a receptor [1], the EC50 is 112 nM and the Emax stood at 79%.
`O=C1c2sc(OCc3ccccc3F)nc2CCN1c1ccc(F)cc1F` [Compound 18, 5-(2,4-difluorophenyl)-2-[(2-fluorophenyl)methoxy]-6,7-dihydro-thiazolo[5,4-c]pyridin-4(5H)-one]: the melting point was in the range of 78.9 to 80.7 °C. At human mGluR5 receptor (human mGluR5 over-expressing HEK-293 cells, glutamate EC20 (~0.2 μM), updated value), this compound gave an EC50 of 617 nM. In addition, on human mGluR5 receptor, the maximal response (Emax) came out at 76%. A half-maximal response on human mGluR5 receptor (original value, which was updated as compound was further tested) (EC50) required 513 nM. Further, the EC50 at human mGluR5a receptor [3] (glutamate EC20) is 427 nM. Also, the Emax at human mGluR5a receptor [3] stood at 72%.
For `O=C1c2sc(COc3cccc(F)c3)nc2CCN1c1ccc(F)cc1F` [Compound 28, 5-(2,4-difluorophenyl)-2-[(3-fluorophenoxy)methyl]-6,7-dihydro-thiazolo[5,4-c]pyridin-4(5H)-one], on human mGluR5a receptor [1], the EC50 is 85.1 nM and the maximal effect (Emax) was 63%.
The compound `O=C1c2sc(OCc3cccc(F)c3)nc2CCN1c1cccc(C(F)(F)F)c1` [Compound 30, 2-[(3-fluorophenyl)methoxy]-6,7-dihydro-5-[3-(trifluoromethyl)phenyl]-thiazolo[5,4-c]pyridin-4(5H)-one] registered a melting point of 108.2 to 108.9 °C. Moreover, at human mGluR5a receptor [1], the EC50 is 933 nM and the Emax is 58%.
Consider `C[C@@H](N1CCc2nc(COc3ccccc3)sc2C1=O)C(C)(C)C` [Compound 35, 6,7-dihydro-2-(phenoxymethyl)-5-[(1R)-1,2,2-trimethylpropyl]-thiazolo[5,4-c]pyridin-4(5H)-one], for which, on human mGluR5a receptor [1], the EC50 is 794 nM and the Emax amounted to 60%.
Turning to `C[C@@H](N1CCc2nc(OCc3cccc(F)c3)sc2C1=O)C(C)(C)C` [Compound 77, 2-[(3-fluorophenyl)methoxy]-6,7-dihydro-5-[(1R)-1,2,2-trimethylpropyl]-thiazolo[5,4-c]pyridin-4(5H)-one], on human mGluR5a receptor [1], the EC50 was more than 30200 nM and the Emax amounted to 21%.

The values above are taken from patent publication US9040707B2, “Bicyclic thiazoles as allosteric modulators of mGluR5 receptors” (Janssen Pharmaceutica NV, priority 2009, dated 2015).
